[FANA] = 2'-fluoro-arabino; d = 2'-deoxy (DNA)
Key:
Format in all cases: cell-based, human
WRN hMSCs = test: Comparison of 3TC and L1 translation blocker with L1 RNA depletion in WRN hMSCs (senescence gene qPCR, immuno-FISH, SA-β-gal); details: 3TC 10 mM, translation inhibitor ASOs 20 nM
Protocol: (§1) Tail tip fibroblasts (TTFs) were isolated from WT and LAKI mice and cultured at 37° C. in Dulbecco's Modified Eagle Medium (DMEM) (Invitrogen) containing Gluta-MAX, non-essential amino acids, and 10% fetal bovine serum (FBS, Gibco). WT and HGPS human dermal fibroblast were obtained from Coriell Biobank (WT: AG06234, AG10108, AG09309, AG10803, AG03257. HGPS: AG06917, AG11498, AG10578, AG11572, AG06297. APS: AG041100 (LMNA E578V), AG00989 (LMNA R644C), AG00990 (LMNA T10I), AG09233 (unknown mutation). WRN: AG12798; AG24467; AG06300; AG00780; AG05229). For LINE-1 knockdown, cells were incubated with 1 μM FANA ASO dissolved in culture medium (61) every 4 days and collected after two passages for senescent marker expression or immunohistochemistry. 3TC (Sigma-Aldrich) treatments were performed at 10 mM as in De Cecco et al. (11). Translation inhibitor ASOs (miRCURY LNA, Qiagen) were used at a final concentration of 20 nM and transfected with RNAiMAX (Invitrogen, Thermo Fisher Scientific) following manufacturer instructions. […]
(§2) Cells were fixed with 4% formaldehyde in PBS at room temperature (RT) for 10 min. […] Z-stack 3D reconstruction, nuclei segmentation, and fluorescence signal quantification were performed using Imaris (v.8.4.1) using nuclei volume as a reference to normalize fluorescence signals. […]

HGPS hMSCs = test: Comparison of 3TC and L1 translation blocker with L1 RNA depletion in HGPS hMSCs (senescence gene qPCR, immuno-FISH, SA-β-gal); details: 3TC 10 mM, translation inhibitor ASOs 20 nM
Protocol: as §1, §2

WRN fibroblasts = test: Quantitative mass spectrometry proteome analysis in WRN fibroblasts
Protocol: (§3) Total protein extracts were prepared with RIPA buffer (50mMTris-cl pH 8.0, 5 mM EDTA, 150 mM Nacl, 15 mM Mgcl2, 1% NP-40, 1 mM PMSF and 1× Protease Inhibitor Cocktail (PIC)). Further, a sonication step was included: (30S ON, 30S OFF, 10 cycles with Bioruptor). Equal […] protein extracts were concentrated to […] volume, then diluted in 8M urea in 0.1M Tris-HCl, followed by protein digestion with trypsin, according to the FASP protocol(66). After an overnight digestion, the peptides were eluted from the filters with 25 mM ammonium bicarbonate buffer. The eluted peptides were processed in the desalting step by using Sep-Pag C18 Column (waters) based on the manufacture's instruction. Approximately 200 ng of peptide mixture per sample was analyzed using a timsTOF Pro 2 QTOF mass spectrometer coupled with a nanoElute liquid chromatography system (Bruker Daltonik GmbH, Germany). The sample was injected directly into a RP-C18 Aurora emitter column (75 μm i.d.×250 mm, 1.6 μm, 120 Å pore size) (Ion Opticks, Australia) using a one-column separation method. An 80-min gradient was established using mobile phase A (0.1% FA in H2O) and mobile phase B (0.1% FA in Acetonitrile): 2-25% B for 60 min, 25-37% for 10 min, ramping 37% to 95% in 5 min, and maintaining 95% B for 5 min. The column temperature was set at 50° C. and the flow rate at 250 nl/min. […]

HGPS fibroblasts = test: Quantitative mass spectrometry proteome analysis in HGPS fibroblasts
Protocol: as §3

| Molecule | anti-aging effect (senescence-associated gene expression, H3K9me3, SA-β-gal positive cells) (WRN hMSCs) | anti-aging effect (senescence-associated gene expression, H3K9me3, SA-β-gal positive cells) (HGPS hMSCs) | protein differential expression (quantitative mass spectrometry) (WRN fibroblasts) | protein differential expression (quantitative mass spectrometry) (HGPS fibroblasts) |
| --- | --- | --- | --- | --- |
| Nc1ccn([C@@H]2CS[C@H](CO)O2)c(=O)n1 [3TC] | less potent anti-aging effect compared to L1 RNA depletion | no effect |  |  |
| A*C*T* T*C*C CTT CTC GCT TC*A*T*T*T* (ACTTCCCTTCTCGCTTCATTT; sugars from the 5' end [FANA]5 d11 [FANA]5, backbone and methylation of C not given here; listed as Homo sapiens) [human L1 2′F-ANA ASO #1, L1-specific 2′F-ANA modified ASO used in all human cell experiments; * denotes 2′F-ANA modified nucleotides] |  |  | ameliorated the aged phenotype also at proteome global level | ameliorated the aged phenotype also at proteome global level |

— patent publication US20260048076A1, “METHODS FOR DECREASING OR INHIBITING HUMAN L1 RETROTRANSPOSON RNA AND COMPOSITIONS FOR USE THEREIN” (ALTOS LABS, INC., priority 2022, published 2026)
